In patent publication US10131652B2, “Pyrimidinyloxy benzene derivatives as herbicides” (E. I. DU PONT DE NEMOURS AND COMPANY, priority 2014, dated 2018):

Experiments:
Assay type in all cases: in vivo
[1] = system: blackgrass (Alopecurus myosuroides); assay: Test B postemergence plant response
Procedure, shortened: (§1)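 Pots, loam soil + sand; postemergence treatment at 1–2 leaf stage, 2–10 cm; greenhouse ~10 d; visual injury score 0 (none) to 100 (complete control) relative to untreated controls.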

[2] = system: galium (catchweed bedstraw, Galium aparine); assay: Test B postemergence plant response
Procedure, shortened: as §1

[3] = system: wild oat (Avena fatua); assay: Test D postemergence plant response; details: for pest or weed control at 31 g/ha / pest or weed control at 62 g/ha / pest or weed control at 125 g/ha: Avena fatua, post-emergence; for pest or weed control at 31 g/ha: read-out: Oat, Wild plant response rating; for pest or weed control at 62 g/ha / pest or weed control at 125 g/ha: read-out: Plant response rating, Oat, Wild
Procedure, shortened: (§2)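 Visual 0–100 rating vs controls (0 = no effect, 100 = complete control), scored 13–15 d after postemergence spray. Plants 1- to 4-leaf stage (2–18 cm), potted in peat/vermiculite mix, kept in greenhouse.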

[4] = system: chickweed (common chickweed, Stellaria media); assay: Test D postemergence plant response; details: for Chickweed plant response rating / pest or weed control at 16 g/ha / pest or weed control at 31 g/ha: scale 0 to 100 (0 no effect, 100 complete control); for Plant response rating, Chickweed / pest or weed control at 62 g/ha / pest or weed control at 125 g/ha: scale 0 to 100, 0 no effect, 100 complete control; for pest or weed control at 16 g/ha / pest or weed control at 31 g/ha / pest or weed control at 62 g/ha / pest or weed control at 125 g/ha: Stellaria media, post-emergence; for pest or weed control at 16 g/ha / pest or weed control at 31 g/ha: read-out: Chickweed plant response rating; for pest or weed control at 62 g/ha / pest or weed control at 125 g/ha: read-out: Plant response rating, Chickweed
Procedure, shortened: as §2

[5] = system: kochia (Kochia scoparia); assay: Test D postemergence plant response; details: for Kochia plant response rating / pest or weed control at 31 g/ha: scale 0 to 100 (0 no effect, 100 complete control); for Plant response rating, Kochia / pest or weed control at 62 g/ha / pest or weed control at 125 g/ha: scale 0 to 100, 0 no effect, 100 complete control; for pest or weed control at 31 g/ha / pest or weed control at 62 g/ha / pest or weed control at 125 g/ha: Bassia scoparia, post-emergence; for pest or weed control at 31 g/ha: read-out: Kochia plant response rating; for pest or weed control at 62 g/ha / pest or weed control at 125 g/ha: read-out: Plant response rating, Kochia
Procedure, shortened: as §2

[6] = system: waterhemp_RES2 (ALS & HPPD resistant common waterhemp, Amaranthus rudis); assay: Test F postemergence plant response; details: scale 0 to 100
Description: (§3) At the same time, plants from these crop and weed species and also waterhemp_RES1, (ALS & Triazine resistant common waterhemp, Amaranthus rudis), and waterhemp_RES2, (ALS & HPPD resistant common waterhemp, Amaranthus rudis) were treated with postemergence applications of test chemicals formulated in the same manner. Plants ranged in height from 2 to 18 cm for postemergence treatments (1- to 4-leaf stage).
(§4) Treated plants and controls were maintained in a greenhouse for 14 to 21 days, after which time all species were compared to controls and visually evaluated. Plant response ratings, summarized in Table F, are based on a scale of 0 to 100 where 0 is no effect and 100 is complete control. A dash (-) response means no test result.

[7] = system: waterhemp_RES1 (ALS & Triazine resistant common waterhemp, Amaranthus rudis); assay: Test F postemergence plant response; details: scale 0 to 100
Description: as §3, §4

[8] = 31 g ai/ha, Postemergence, 0 to 100 scale, 0 no effect, 100 complete control
[9] = 125 g ai/ha, postemergence, 0 to 100 scale, 0 no effect, 100 complete control
[10] = 31 g ai/ha, scale 0 to 100 (0 no effect, 100 complete control)
[11] = 62 g ai/ha, scale 0 to 100, 0 no effect, 100 complete control
[12] = 125 g ai/ha, scale 0 to 100, 0 no effect, 100 complete control
[13] = Postemergence, 31 g ai/ha, 0 to 100 scale (0 no effect, 100 complete control)
[14] = Postemergence, 500 g ai/ha, 0 to 100 scale (0 no effect, 100 complete control)

Structure (SMILES)	Plant response rating, Blackgrass [1, 9]	Plant response rating, Galium [2, 9]	Oat, Wild plant response rating [3, 10]	Plant response rating, Oat, Wild [3, 12]	Chickweed plant response rating ([4]; 31 g ai/ha)	Plant response rating, Chickweed ([4]; 62 g ai/ha)	Plant response rating, Chickweed ([4]; 125 g ai/ha)	Kochia plant response rating ([5]; 31 g ai/ha)	Plant response rating, Kochia ([5]; 62 g ai/ha)	Plant response rating, Kochia ([5]; 125 g ai/ha)	Plant response rating, Waterhemp_RES2 ([6]; 16 g ai/ha Postemergence)	Plant response rating, Waterhemp_RES2 ([6]; 31 g ai/ha Postemergence)	Plant response rating, Waterhemp_RES2 ([6]; 62 g ai/ha Postemergence)	Plant response rating, Waterhemp_RES2 ([6]; 125 g ai/ha Postemergence)	Plant response rating, Waterhemp_RES1 ([7]; 16 g ai/ha Postemergence)	Plant response rating, Waterhemp_RES1 ([7]; 31 g ai/ha Postemergence)	Plant response rating, Waterhemp_RES1 ([7]; 62 g ai/ha Postemergence)	Plant response rating, Waterhemp_RES1 ([7]; 125 g ai/ha Postemergence)	Plant response rating, Blackgrass [1, 13]	Plant response rating, Galium [2, 13]	also measured
Fc1ccc(Oc2ncc(Cl)cn2)c(-c2cc(C(F)F)on2)c1Cl [Compound 96]	70	100	20	20	85	90	98	60	85	100	85	90	90	95	85	90	95	95			Plant response rating, Blackgrass [1, 8]: 10; Plant response rating, Galium [2, 8]: 100; Oat, Wild plant response rating ([3]; 16 g ai/ha, scale 0 to 100 (0 no effect, 100 complete control)): 15; Plant response rating, Oat, Wild [3, 11]: 20; Chickweed plant response rating ([4]; 16 g ai/ha): 60; Kochia plant response rating ([5]; 16 g ai/ha): 25
Fc1cccc(Oc2ncc(Cl)cn2)c1-c1cc(C(F)F)no1 [Compound 144, 5-chloro-2-[2-[3-(difluoromethyl)-5-isoxazolyl]-3-fluorophenoxy]pyrimidine]	90	100									98	100	100	100	90	95	100	100	80	100	pest or weed control at 31 g/ha [3, 10]: 0%; pest or weed control at 62 g/ha [3, 11]: 5%; pest or weed control at 125 g/ha [3, 12]: 10%; pest or weed control at 16 g/ha ([4]; 16 g ai/ha): 70%; pest or weed control at 31 g/ha ([4]; 31 g ai/ha): 80%; pest or weed control at 62 g/ha ([4]; 62 g ai/ha): 95%; pest or weed control at 125 g/ha ([4]; 125 g ai/ha): 95%; pest or weed control at 31 g/ha ([5]; 31 g ai/ha): 100%; pest or weed control at 62 g/ha ([5]; 62 g ai/ha): 100%; pest or weed control at 125 g/ha ([5]; 125 g ai/ha): 100%
Fc1cccc(Oc2ncc(Br)cn2)c1-c1cc(C(F)F)no1 [Compound 145, 5-bromo-2-[2-[3-(difluoromethyl)-5-isoxazolyl]-3-fluorophenoxy]pyrimidine]	90	100									95	90	100	100	95	98	100	100	70	100	pest or weed control at 31 g/ha [3, 10]: 10%; pest or weed control at 62 g/ha [3, 11]: 15%; pest or weed control at 125 g/ha [3, 12]: 15%; pest or weed control at 16 g/ha ([4]; 16 g ai/ha): 70%; pest or weed control at 31 g/ha ([4]; 31 g ai/ha): 80%; pest or weed control at 62 g/ha ([4]; 62 g ai/ha): 95%; pest or weed control at 125 g/ha ([4]; 125 g ai/ha): 100%; pest or weed control at 31 g/ha ([5]; 31 g ai/ha): 100%; pest or weed control at 62 g/ha ([5]; 62 g ai/ha): 100%; pest or weed control at 125 g/ha ([5]; 125 g ai/ha): 100%
CC(F)(F)c1cc(-c2ccccc2Oc2ncc(Br)cn2)no1 [Compound 149]	60	90	0	5	30	30	60	90	100	100	95	95	100	100	80	85	90	100	10	90	Plant response rating, Oat, Wild [3, 11]: 0; Chickweed plant response rating ([4]; 16 g ai/ha): 5
FC(F)c1cc(-c2c(Cl)cccc2Oc2ncc(Cl)cn2)no1 [Compound 179]	80	100	5	20	80	95	95	100	100	100	95	100	100	100	90	90	100	100			Plant response rating, Blackgrass [1, 14]: 100; Plant response rating, Galium [2, 14]: 100; Plant response rating (scale 0 to 100), Oat, Wild ([3]; 16 g ai/ha): 0; Oat, Wild plant response rating [3, 11]: 15; Plant response rating (scale 0 to 100), Chickweed ([4]; 16 g ai/ha): 70; Plant response rating (scale 0 to 100), Kochia ([5]; 16 g ai/ha): 90
FC(F)c1cc(-c2ccccc2Oc2ncc(Br)cn2)on1 [Compound 212]	50	100	0	10	30	30	80	100	100	100	70	95	98	100	70	80	95	98	10	60	Plant response rating (scale 0 to 100), Oat, Wild ([3]; 16 g ai/ha): 0; Oat, Wild plant response rating [3, 11]: 5; Plant response rating (scale 0 to 100), Chickweed ([4]; 16 g ai/ha): 10; Plant response rating (scale 0 to 100), Kochia ([5]; 16 g ai/ha): 90
Fc1ccc(Oc2ncc(Cl)cn2)c(-c2cc(C(F)(Cl)Cl)on2)c1 [Compound 221]	60	100	10	35	85	80	100	100	100	100	90	98	95	100	85	95	100	98	30	90	Plant response rating (scale 0 to 100), Oat, Wild ([3]; 16 g ai/ha): 5; Oat, Wild plant response rating [3, 11]: 10; Plant response rating (scale 0 to 100), Chickweed ([4]; 16 g ai/ha): 75; Plant response rating (scale 0 to 100), Kochia ([5]; 16 g ai/ha): 98
